PMC8775380, “A Complexed Crystal Structure of a Single-Stranded DNA-Binding Protein with Quercetin and the Structural Basis of Flavonol Inhibition Specificity” (International Journal of Molecular Sciences, 2022)

Key:
[1] = biological target: T1, Pseudomonas aeruginosa single-stranded DNA-binding protein (PaSSB) (Pseudomonas aeruginosa, UniProt P40947); assay: EMSA, inhibition of PaSSB binding to biotin-labeled dT35 ssDNA; format: biochemical; set-up: gene ssb; purified recombinant PaSSB
T1 sequence (P40947 2-165): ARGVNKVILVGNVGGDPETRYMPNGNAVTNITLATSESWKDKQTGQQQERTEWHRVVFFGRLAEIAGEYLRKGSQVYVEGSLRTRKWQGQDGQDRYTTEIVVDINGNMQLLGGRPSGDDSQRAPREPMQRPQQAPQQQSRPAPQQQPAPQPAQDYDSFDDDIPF

[2] = biological target: T1, Pseudomonas aeruginosa single-stranded DNA-binding protein (PaSSB); assay: X-ray crystal structure of the complex, […] Å; set-up: gene ssb; recombinant PaSSB; amino acids 114–165 not observed in the structure
[3] = biological target: PaSSB (single-stranded DNA-binding protein) (Pseudomonas aeruginosa, UniProt P40947 1-165); assay: EMSA; no flavonol; protein concentration at 50% bound; EMSA: 40 mM Tris-HCl pH 7.5, 50 mM NaCl, 37 °C 60 min, DNA 30 fmol/uL, PaSSB 0-5 uM; 8% native PAGE in TBE; flavonols dissolved in 10% DMSO; conditions: protein: recombinant; chain copies: 4; label: biotin (3' in Results, 5' in Methods); single strand

O=c1c(O)c(-c2cc(O)c(O)c(O)c2)oc2cc(O)cc(O)c12 [myricetin]
IC50 [1]: 2800 ± 400 nM

O=c1c(O)c(-c2ccc(O)c(O)c2)oc2cc(O)cc(O)c12 [quercetin]
X-ray crystal structure of the complex, 2.32 Å [2]: The electron density of quercetin was well-defined and indicated the presence of quercetin in the structure of PaSSB

TTTTTTTTTTTTTTTTTTTTTTTTTTTTTTTTTTT (ssDNA) [dT35]
apparent K (half saturation) [3]: 548 ± 36 nM
